Experimental data as given in PubChem BioAssay (NCI).
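Test compounds were applied to cells in 96-well plates for 48 hours at 5 doses. GI50 = concentration required for 50% inhibition of growth. Definition used: TGI = concentration required for complete inhibition of growth.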

What was measured:
Test in all cases: inhibition of tumour cell growth, NCI panel, 48 h
A498 renal = tested on: A498 renal
UO-31 renal = tested on: UO-31 renal
SK-MEL-28 melanoma = tested on: SK-MEL-28 melanoma
EKVX NSCLC = tested on: EKVX NSCLC
NCI-H522 lung = tested on: NCI-H522 lung
MCF7 breast = tested on: MCF7 breast
MDA-MB-435 = tested on: MDA-MB-435
NCI/ADR-RES ovarian = tested on: NCI/ADR-RES ovarian
IGROV1 ovarian = tested on: IGROV1 ovarian
BT-549 breast = tested on: BT-549 breast

Row | SMILES | GI50 (A498 renal) [µM] | TGI (A498 renal) [µM] | GI50 (UO-31 renal) [µM] | TGI (UO-31 renal) [µM] | GI50 (SK-MEL-28 melanoma) [µM] | TGI (SK-MEL-28 melanoma) [µM] | GI50 (EKVX NSCLC) [µM] | TGI (EKVX NSCLC) [µM] | GI50 (NCI-H522 lung) [µM] | TGI (NCI-H522 lung) [µM] | GI50 (MCF7 breast) [µM] | TGI (MCF7 breast) [µM] | GI50 (MDA-MB-435) [µM] | TGI (MDA-MB-435) [µM] | GI50 (NCI/ADR-RES ovarian) [µM] | TGI (NCI/ADR-RES ovarian) [µM] | GI50 (IGROV1 ovarian) [µM] | TGI (IGROV1 ovarian) [µM] | GI50 (BT-549 breast) [µM] | TGI (BT-549 breast) [µM]
1 | CCCCN(CCCC)CCC(O)c1cc2ccc(C(F)(F)F)cc2c2cc(C(F)(F)F)ccc12 (stereo not given) | 2.02 | 5.86 | 1.89 | 12.4 | 2.21 | 4.23 | 9.3 | 26.8 | 1.79 | 3.54 | 1.62 | 3.74 | 2.13 | 4.59 | 2.69 | 11.9 | 3.47 | 14.5 |  | 
2 | CC(=O)n1c(-c2ccc(Cl)c(Cl)c2)cn(-c2ccc(Cl)cc2)c1=O | 20.9 | 47 | 24.7 | 51.4 | > 100 | > 100 | 12.5 | 34.6 | 19.3 | 53.6 | 30.8 | > 100 | 84.1 | > 100 | 35.2 | > 100 |  |  | 17 | 36.6
3 | O=[N+]([O-])c1cc2c(ccc3occc32)o1 | 2.21 | 4.58 | 1.99 | 7.65 | 2.17 | 6.27 |  |  | 1.67 | 4.45 | 0.701 | 21.2 |  |  | 3.28 | 30.9 | 1.55 | 7.32 | 1.87 | 4.4
4 | COc1ccc2c(c1)C=C1CSCC3=Cc4cc(OC)ccc4OC13O2 | 0.23 | 0.766 | 0.642 | > 100 | > 28.2 | > 100 | 3.14 | > 100 | 0.232 | 0.937 | 0.313 | > 100 |  |  | 0.308 | > 100 | 0.608 | > 100 | 0.816 | > 100
5 | COc1cc2c(cc1OCCCCCn1c3ccccc3c3ccccc31)N=C[C@@H]1CCCN1C2=O | 1.77 | 3.69 | 1.52 | 2.93 | 1.8 | 3.5 | 5.27 | 18.7 |  |  | 2.33 | 9.19 | 1.69 | 3.29 | 2.14 | 4.75 | 2.08 | 4.69 | 2.03 | 4.31
6 | O=CN1N=C(c2ccc(Nc3ccnc4cc(Cl)ccc34)cc2)CC1c1ccc(Cl)cc1 (stereo not given) | > 100 | > 100 | 1.3 | > 100 | 0.758 | > 100 |  |  | 0.386 | 30.2 | 0.48 | > 100 | 0.198 | 0.48 | 0.359 | > 100 | 5.01 | > 100 | 4.77 | > 100
7 | CN(C)C(=S)SCC(N)=O |  | > 100 |  |  |  | > 100 |  | > 100 |  | > 100 |  | > 100 |  | > 100 |  | > 100 |  | > 100 |  | > 100
